Data taken from patent US9850225B2, “Compounds useful as immunomodulators” (BRISTOL-MYERS SQUIBB COMPANY, priority 2014, dated 2017).
Like-named read-outs stand apart in the source and are kept apart here.

Molecular target: PD-1/PD-L1 interaction (PD-1-Ig / PD-L1-His) (Homo sapiens (Human), UniProt Q9NZQ7)
Test: PD-1/PD-L1 Homogenous Time-Resolved Fluorescence (HTRF) binding assay
Details: PD-1/PD-L1 HTRF binding assay, read-out: Range or IC50
Procedure, shortened: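 HTRF detection used 1 nM europium-cryptate anti-Ig and 20 nM APC anti-His. Compounds first saw 10 nM PD-L1-His for 15 min, and 20 nM PD-1-Ig was then added for another 15 min. Buffer was dPBS plus 0.1% BSA and 0.05% Tween-20. All concentrations are final.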

PD-1/PD-L1 interaction (PD-1-Ig / PD-L1-His), sequence (Q9NZQ7 other isoform, or with tags, fused parts or gaps): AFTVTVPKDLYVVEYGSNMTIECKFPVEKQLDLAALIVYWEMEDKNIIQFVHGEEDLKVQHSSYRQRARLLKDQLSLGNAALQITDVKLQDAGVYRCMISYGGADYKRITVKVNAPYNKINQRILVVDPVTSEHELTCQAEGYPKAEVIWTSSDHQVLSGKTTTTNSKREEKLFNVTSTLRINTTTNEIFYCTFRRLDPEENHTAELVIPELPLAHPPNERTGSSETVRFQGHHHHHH

## Cc1c(COc2ccc(CN[C@](C)(CO)C(=O)O)c(OCc3cccc(C#N)c3)c2Cl)cccc1-c1ccc2c(c1)OCCO2 [Example 1239, (R)-2-((3-chloro-2-((3-cyanobenzyl)oxy)-4-((3-(2,3-dihydrobenzo[b][1,4]dioxin-6-yl)-2-methylbenzyl)oxy)benzyl)amino)-3-hydroxy-2-methylpropanoic acid]
Numeric value
  IC50: 149 nM

## CC(=O)NCCNCc1cc(C)c(OCc2cccc(-c3ccc4c(c3)OCCO4)c2C)cc1OCc1cccnc1 [Example 1276, N-(2-((4-((3-(2,3-dihydrobenzo[b][1,4]dioxin-6-yl)-2-methylbenzyl)oxy)-5-methyl-2-(pyridin-3-ylmethoxy)benzyl)amino)ethyl)acetamide]
Value given as range class
  IC50: 0.6 to 10 nM

## C=Cc1cc(CN2CCCC[C@H]2C(=O)O)c(OCc2cccc(C#N)c2)cc1OCc1cccc(-c2ccc3c(c2)OCCO3)c1C [Example 1293, (S)-1-(2-(3-cyanobenzyloxy)-4-(3-(2,3-dihydrobenzo[b][1,4]dioxin-6-yl) -2-methylbenzyloxy)-5-vinylbenzyl)piperidine-2-carboxylic acid]
Value given as range class
  IC50: 0.6 to 10 nM

## Cc1c(COc2ccc(CNC[C@@H](O)CC(=O)O)c(OCc3cncc(C#N)c3)c2)cccc1-c1ccccc1 [Example 1328, (S)-4-((2-((5-cyanopyridin-3-yl)methoxy)-4-((2-methyl-[1,1′-biphenyl]-3-yl)methoxy)benzyl)amino)-3-hydroxybutanoic acid]
Value given as range class
  IC50: 0.6 to 10 nM

## CC(=O)NCCNCc1ccc(OCc2cccc(-c3ccccc3)c2C)cc1OCc1cccc(Cl)c1 [Example 1054, N-(2-((2-((3-chlorobenzyl)oxy)-4-((2-methyl-[1,1′-biphenyl]-3-yl)methoxy)benzyl)amino)ethyl)acetamide]
Value given as range class
  IC50: 100 to 20000 nM

## Cc1c(COc2cc(OCc3cncc(C#N)c3)c(CN[C@@H](Cc3ccccn3)C(=O)O)cc2Cl)cccc1-c1ccc2c(c1)OCCO2 [Example 2009, (S)-2-((5-chloro-2-((5-cyanopyridin-3-yl)methoxy)-4-((3-(2,3-dihydrobenzo[b][1,4]dioxin-6-yl)-2-methylbenzyl)oxy)benzyl)amino)-3-(pyridin-2-yl)propanoic acid]
Value given as range class
  IC50: 0.6 to 10 nM

## COc1cc(OCc2cccc(-c3ccccc3)c2C)cc(OCc2cccc(C#N)c2)c1CNC[C@@H](O)CC(=O)O [Example 1133, (S)-4-((2-((3-cyanobenzyl)oxy)-6-methoxy-4-((2-methyl-[1,1′-biphenyl]-3-yl)methoxy)benzyl)amino)-3-hydroxybutanoic acid]
Value given as range class
  IC50: 0.6 to 10 nM

## Cc1c(COc2cc(OCc3cccc(C#N)c3)c(CN[C@@H](Cc3cn(Cc4ccccc4)cn3)C(=O)O)cc2Cl)cccc1-c1ccc2c(c1)OCCO2 [Example 1186, (S)-3-(1-benzyl-1H-imidazol-4-yl)-2-((5-chloro-2-((3-cyanobenzyl)oxy)-4-((3-(2,3-dihydrobenzo[b][1,4]dioxin-6-yl)-2-methylbenzyl)oxy)benzyl)amino)propanoic acid]
Value given as range class
  IC50: 0.6 to 10 nM

## C=Cc1cc(CNCCNC(C)=O)c(OCc2cccc(C#N)c2)cc1OCc1cccc(-c2ccc3c(c2)OCCO3)c1C [Example 1292, N-(2-(2-(3-cyanobenzyloxy)-4-(3-(2,3-dihydrobenzo[b][1,4]dioxin-6-yl)-2-methylbenzyloxy)-5-vinylbenzylamino)ethyl)acetamide]
Value given as range class
  IC50: 0.6 to 10 nM

## Cc1c(COc2cc(OCc3cccc(C#N)c3)c(CNC(Cc3nccs3)C(=O)O)cc2Cl)cccc1-c1ccc2c(c1)OCCO2 (centres unmarked) [Example 1178, 2-((5-chloro-2-((3-cyanobenzyl)oxy)-4-((3-(2,3-dihydrobenzo[b][1,4]dioxin-6-yl)-2-methylbenzyl)oxy)benzyl)amino)-3-(thiazol-2-yl)propanoic acid]
Value given as range class
  IC50: 10 to 100 nM

## CC(=O)NCCNCc1ccc(OCc2cccc(-c3ccccc3)c2C)cc1OCc1cccc(Oc2ccc(F)cc2)c1 [Example 1078, N-(2-((2-((3-(4-fluorophenoxyl)benzyl)oxy)-4-((2-methyl-[1,1′-biphenyl]-3-yl)methoxy)benzyl)amino)ethyl)acetamide]
Value given as range class
  IC50: 100 to 20000 nM

## CC(=O)NCCNCc1ccc(OCc2cccc(-c3ccccc3)c2C)cc1OCc1ccc(C#N)cc1 [Example 1029, N-(2-((2-((4-cyanobenzyl)oxy)-4-((2-methyl-[1,1′-biphenyl]-3-yl)methoxy)benzyl)amino)ethyl)acetamide]
Value given as range class
  IC50: 100 to 20000 nM

## Cc1c(COc2ccc(CN[C@H](CO)C(=O)O)c(OCc3cccc(C#N)c3)c2)cccc1-c1ccc2c(c1)OCCO2 [Example 1122, (R)-2-(2-(3-cyanobenzyloxy)-4-(3-(2,3-dihydrobenzo[b][1,4]dioxin-6-yl)-2-methylbenzyloxy)benzylamino)-3-hydroxypropanoic acid]
Value given as range class
  IC50: 0.6 to 10 nM

## Cc1cc(CN[C@](C)(CO)C(=O)O)c(OCc2cncc(C#N)c2)cc1OCc1cccc(-c2ccc3c(c2)OCCO3)c1C#N [Example 1311, (R)-2-(4-(2-cyano-3-(2,3-dihydrobenzo[b][1,4]dioxin-6-yl)benzyloxy)-2-((5-cyanopyridin-3-yl)methoxy)-5-methylbenzylamino)-3-hydroxy-2-methylpropanoic acid]
Value given as range class
  IC50: 0.6 to 10 nM

## Cc1c(COc2cc(OCc3ccnc(C(=O)N(C)C)c3)c(CN[C@@](C)(CO)C(=O)O)cc2Cl)cccc1-c1ccc2c(c1)OCCO2 [Example 3018, (S)-2-((5-chloro-4-((3-(2,3-dihydrobenzo[b][1,4]dioxin-6-yl)-2-methylbenzyl)oxy)-2-((2-(dimethylcarbamoyl)pyridin-4-yl)methoxy)benzyl)amino)-3-hydroxy-2-methylpropanoic acid]
Value given as range class
  IC50: 0.6 to 10 nM

## Cc1c(COc2cc(OCc3cncc(C#N)c3)c(CN3CCCC[C@H]3C(=O)NS(=O)(=O)C(F)(F)F)cc2Cl)cccc1-c1ccc2c(c1)OCCO2 [Example 1258, (S)-1-(5-chloro-2-((5-cyanopyridin-3-yl)methoxy)-4-((3-(2,3-dihydrobenzo[b][1,4]dioxin-6-yl)-2-methylbenzyl)oxy)benzyl)-N-((trifluoromethyl)sulfonyl)piperidine-2-carboxamide]
Value given as range class
  IC50: 10 to 100 nM

## Cc1c(COc2ccc(CN[C@H](C(=O)O)[C@H](C)O)c(OCc3cccc(C#N)c3)c2)cccc1-c1ccccc1 [Example 1012, (2S,3S)-2-((2-((3-cyanobenzyl)oxy)-4-((2-methyl-[1,1′-biphenyl]-3-yl)methoxy)benzyl)amino)-3-hydroxybutanoic acid]
Value given as range class
  IC50: 10 to 100 nM

## Cc1cc(CN2CCCC[C@H]2C(=O)O)c(OCc2ccc(F)c(C#N)c2)cc1OCc1cccc(-c2ccc3c(c2)OCCO3)c1C [Example 1272, (S)-1-(2-((3-cyano-4-fluorobenzyl)oxy)-4-((3-(2,3-dihydrobenzo[b][1,4]dioxin-6-yl)-2-methylbenzyl)oxy)-5-methylbenzyl)piperidine-2-carboxylic acid]
Value given as range class
  IC50: 0.6 to 10 nM

## COc1cc(F)cc(COc2cc(OCc3cccc(-c4ccccc4)c3C)ccc2CNCCNC(C)=O)c1 [Example 1096, N-(2-((2-((3-fluoro-5-methoxybenzyl)oxy)-4-((2-methyl-[1,1′-biphenyl]-3-yl)methoxy)benzyl)amino)ethyl)acetamide]
Value given as range class
  IC50: 100 to 20000 nM

## Cc1c(COc2ccc(CN[C@@H](C(=O)O)[C@H](C)O)c(OCc3cccc(C#N)c3)c2)cccc1-c1ccccc1 [Example 1015, (2R,3S)-2-((2-((3-cyanobenzyl)oxy)-4-((2-methyl-[1,1′-biphenyl]-3-yl)methoxy)benzyl)amino)-3-hydroxybutanoic acid]
Value given as range class
  IC50: 0.6 to 10 nM
